The values below come from patent US8889712B2, “IAP antagonists” (Bristol-Myers Squibb Company, priority 2012, dated 2014).

Structures are written as SMILES.

Assay [1] addresses T1, XIAP BIR3 (Homo sapiens, UniProt P98170).
T1 construct: His-BIR3 (241-356, XIAP)
Kind of assay: XIAP-BIR3/SMAC Homogeneous Time Resolved Fluorescence (HTRF) Assay. The assay is classed as binding. The settings on record: 1 nM N-His-BIR3 (241-356, XIAP), 5 nM fluorescein labeled SMAC peptide; HTRF signal; read-out: XIAP BIR3 IC50. The procedure:
A. XIAP-BIR3/SMAC Homogeneous Time Resolved Fluorescence (HTRF) Assay Assays were performed in black, flat-bottom, 384-well plates. […] The reaction was incubated at room temperature for 60 minutes, following which 10 μl of mouse anti-6×His-terbium labeled Fab (Medarex, Cis-bio) was added to the reaction (40 μl) for an additional 30 minute incubation. […] Compounds were dissolved at 3 mM in dimethylsulfoxide (DMSO) and evaluated at eleven serially diluted concentrations. IC50 and Ki values were derived by non-linear regression analysis.

In assay [2] the target is T2, XIAP BIR2-3 (Homo sapiens, UniProt P98170, C202A/C213G).
T2 construct: His-BIR2-3 (125-356, C202A/C213G, XIAP)
Kind of assay: XIAP-BIR2-3 dimeric SMAC Peptide Homogeneous Time Resolved Fluorescence (HTRF) Assay. The format is binding. Particulars: 0.5 nM N-His-BIR2-3 (125-356, C202A/C213G, XIAP), 20 nM fluorescein labeled dimeric SMAC peptide; HTRF signal; read-out: XIAP BIR2-3 IC50. The procedure:
B. […] Assays were performed in black, flat-bottom, 384-well plates. […] Compounds were dissolved at 3 mM in dimethylsulfoxide (DMSO) and evaluated at eleven serially diluted concentrations. IC50 and Ki values were derived by non-linear regression analysis.

T2 sequence (P98170 125-356 C202A/C213G): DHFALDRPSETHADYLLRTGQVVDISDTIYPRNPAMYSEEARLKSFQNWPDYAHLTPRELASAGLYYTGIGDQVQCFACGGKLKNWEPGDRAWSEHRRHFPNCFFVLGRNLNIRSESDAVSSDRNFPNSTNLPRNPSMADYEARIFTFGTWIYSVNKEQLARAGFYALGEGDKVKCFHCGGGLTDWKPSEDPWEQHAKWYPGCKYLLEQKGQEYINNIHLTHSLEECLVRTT
T1 sequence (P98170 241-356): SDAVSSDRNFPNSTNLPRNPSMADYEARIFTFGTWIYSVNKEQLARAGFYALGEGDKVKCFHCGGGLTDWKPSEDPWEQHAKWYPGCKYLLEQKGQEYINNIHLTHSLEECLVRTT

Regarding `CN[C@@H](C)C(=O)N[C@H](C(=O)N1Cc2cc(C(=O)N[C@H]3C[C@@H](C(=O)N[C@@H]4CCCc5ccccc54)N(C(=O)[C@@H](NC(=O)[C@H](C)NC)C(C)(C)C)C3)ccc2C[C@H]1C(=O)N[C@@H]1CCCc2ccccc21)[C@@H](C)OC` [Example 7, (S)-N^7-((3S,5S)-1-((S)-3,3-Dimethyl-2-((S)-2-(methylamino)propanamido)butanoyl)-5-(((R)-1,2,3,4-tetrahydronaphthalen-1-yl)carbamoyl)pyrrolidin-3-yl)-2-((2S,3R)-3-methoxy-2-((S)-2-(methylamino)propanamido)butanoyl)-N^3-((R)-1,2,3,4-tetrahydronaphthalen-1-yl)-1,2,3,4-tetrahydroisoquinoline-3,7-dicarboxamide], the IC50 in assay [1] and in assay [2] was 6 nM each time.

Consider `CCC(CC)[C@H](NC(=O)[C@H](C)NC)C(=O)N1Cc2cc(C(=O)N[C@H]3C[C@@H](C(=O)N[C@@H]4CCCc5ccccc54)N(C(=O)[C@@H](NC(=O)[C@H](C)NC)C(C)(C)C)C3)ccc2C[C@H]1C(=O)N[C@@H]1CCCc2ccccc21` [Example 8, (S)-N^7-((3S,5S)-1-((S)-3,3-Dimethyl-2-((S)-2-(methylamino)propanamido)butanoyl)-5-(((R)-1,2,3,4-tetrahydronaphthalen-1-yl)carbamoyl)pyrrolidin-3-yl)-2-((S)-3-ethyl-2-((S)-2-(methylamino)propanamido)pentanoyl)-N^3-((R)-1,2,3,4-tetrahydronaphthalen-1-yl)-1,2,3,4-tetrahydroisoquinoline-3,7-dicarboxamide], for which the IC50 in assay [1] came to 11 nM; in assay [2], 2 nM.

As to `CN[C@@H](C)C(=O)N[C@@H](CC1CCCCC1)C(=O)N1Cc2cc(C(=O)N[C@H]3C[C@@H](C(=O)N[C@@H]4CCCc5ccccc54)N(C(=O)[C@@H](NC(=O)[C@H](C)NC)C(C)(C)C)C3)ccc2C[C@H]1C(=O)N[C@@H]1CCCc2ccccc21` [Example 9, (S)-2-((S)-3-Cyclohexyl-2-((S)-2-(methylamino)propanamido)propanoyl)-N^7-((3S,5S)-1-((S)-3,3-dimethyl-2-((S)-2-(methylamino)propanamido)butanoyl)-5-(((R)-1,2,3,4-tetrahydronaphthalen-1-yl)carbamoyl)pyrrolidin-3-yl)-N^3-((R)-1,2,3,4-tetrahydronaphthalen-1-yl)-1,2,3,4-tetrahydroisoquinoline-3,7-dicarboxamide], the figures for the IC50 in assay [1] and in assay [2] were 33 nM and 3 nM, respectively.

As for `CN[C@@H](C)C(=O)N[C@H](C(=O)N1C[C@@H](NC(=O)c2ccc3c(c2)CN(C(=O)[C@@H](NC(=O)[C@H](C)NC)C24CC5CC(CC(C5)C2)C4)[C@H](C(=O)NC2CCCc4ccccc42)C3)C[C@H]1C(=O)NC1CCCc2ccccc21)C(C)(C)C` (stereo partly drawn) [Example 10, (S)-2-((S)-2-((3S,5S,7S)-Adamantan-1-yl)-2-((S)-2-(methylamino)propanamido)acetyl)-N^7-((3S,5S)-1-((S)-3,3-dimethyl-2-((S)-2-(methylamino)propanamido)butanoyl)-5-(((R)-1,2,3,4-tetrahydronaphthalen-1-yl)carbamoyl)pyrrolidin-3-yl)-N^3-((R)-1,2,3,4-tetrahydronaphthalen-1-yl)-1,2,3,4-tetrahydroisoquinoline-3,7-dicarboxamide], the figures for the IC50 in assay [1] and in assay [2] were 63 nM and 4 nM, respectively.

Consider `CN[C@@H](C)C(=O)N[C@@H](Cc1cc(F)cc(F)c1)C(=O)N1Cc2cc(C(=O)N[C@H]3C[C@@H](C(=O)N[C@@H]4CCCc5ccccc54)N(C(=O)[C@@H](NC(=O)[C@H](C)NC)C(C)(C)C)C3)ccc2C[C@H]1C(=O)N[C@@H]1CCCc2ccccc21` [Example 11, (S)-2-((S)-3-(3,5-Difluorophenyl)-2-((S)-2-(methylamino)propanamido)propanoyl)-N^7-((3S,5S)-1-((S)-3,3-dimethyl-2-((S)-2-(methylamino)propanamido)butanoyl)-5-(((R)-1,2,3,4-tetrahydronaphthalen-1-yl)carbamoyl)pyrrolidin-3-yl)-N^3-((R)-1,2,3,4-tetrahydronaphthalen-1-yl)-1,2,3,4-tetrahydroisoquinoline-3,7-dicarboxamide], for which the IC50 came to 25 nM in assay [1] and 10 nM in assay [2].

For `CN[C@@H](C)C(=O)N[C@H](C(=O)N1Cc2cc(C(=O)N[C@H]3C[C@@H](C(=O)N[C@@H]4CCCc5ccccc54)N(C(=O)[C@@H](NC(=O)[C@H](C)NC)C(C)(C)C)C3)ccc2C[C@H]1C(=O)N[C@@H]1CCCc2ccccc21)C1CCCC1` [Example 12, (S)-2-((S)-2-Cyclopentyl-2-((S)-2-(methylamino)propanamido)acetyl)-N^7-((3S,5S)-1-((S)-3,3-dimethyl-2-((S)-2-(methylamino)propanamido)butanoyl)-5-(((R)-1,2,3,4-tetrahydronaphthalen-1-yl)carbamoyl)pyrrolidin-3-yl)-N^3-((R)-1,2,3,4-tetrahydronaphthalen-1-yl)-1,2,3,4-tetrahydroisoquinoline-3,7-dicarboxamide], the IC50 in assay [1] stood at 19 nM; in assay [2] it was 15 nM.

For `CN[C@@H](C)C(=O)N[C@H](C(=O)N1Cc2cc(C(=O)N[C@H]3C[C@@H](C(=O)NC4CCCc5ccccc54)N(C(=O)[C@@H](NC(=O)[C@H](C)NC)C(C)(C)C)C3)ccc2C[C@H]1C(=O)NC1CCCc2ccccc21)C1CCOCC1` (stereo partly drawn) [Example 13], the IC50 in assay [1] was found to be 6 nM; in assay [2] it was 2 nM.

On to `CCN[C@@H](C)C(=O)N[C@H](C(=O)N1C[C@@H](NC(=O)c2ccc3c(c2)CN(C(=O)[C@@H](NC(=O)[C@H](C)NC)C(C)(C)C)[C@H](C(=O)N[C@@H]2CCCc4ccccc42)C3)C[C@H]1C(=O)N[C@@H]1CCCc2ccccc21)C(C)(C)C` [Example 14, (S)-2-((S)-3,3-Dimethyl-2-((S)-2-(methylamino)propanamido)butanoyl)-N^7-((3S,5S)-1-((S)-2-((S)-2-(ethylamino)propanamido)-3,3-dimethylbutanoyl)-5-(((R)-1,2,3,4-tetrahydronaphthalen-1-yl)carbamoyl)pyrrolidin-3-yl)-N^3-((R)-1,2,3,4-tetrahydronaphthalen-1-yl)-1,2,3,4-tetrahydroisoquinoline-3,7-dicarboxamide], for which the IC50 in assay [1] stood at 29 nM; in assay [2], 15 nM.

In the case of `CC[C@H](NC)C(=O)N[C@H](C(=O)N1C[C@@H](NC(=O)c2ccc3c(c2)CN(C(=O)[C@@H](NC(=O)[C@H](C)NC)C(C)(C)C)[C@H](C(=O)N[C@@H]2CCCc4ccccc42)C3)C[C@H]1C(=O)N[C@@H]1CCCc2ccccc21)C(C)(C)C` [Example 15, (S)-N^7-((3S,5S)-1-((S)-3,3-Dimethyl-2-((S)-2-(methylamino)butanamido)butanoyl)-5-(((R)-1,2,3,4-tetrahydronaphthalen-1-yl)carbamoyl)pyrrolidin-3-yl)-2-((S)-3,3-dimethyl-2-((S)-2-(methylamino)propanamido)butanoyl)-N^3-((R)-1,2,3,4-tetrahydronaphthalen-1-yl)-1,2,3,4-tetrahydroisoquinoline-3,7-dicarboxamide], the IC50 in assay [1] stood at 16 nM; in assay [2], 5 nM.
